US12071430B2 (The Johns Hopkins University, priority 2011, dated 2024)
Like-named read-outs stand apart in the source and are kept apart here.

Columns and labels:
HUVEC = HUVEC proliferation, [3H]-thymidine incorporation assay; format: cell-based, human; details: for Proliferation (IC50/IC50 Itra): HUVEC IC50 relative to itraconazole; for IC50: [3H]-thymidine incorporation, unit inferred, values in μM, read-out: Proliferation IC50
Experimental: The inhibitory effects of the new analogs on HUVEC proliferation were measured using a [3H]-thymidine incorporation assay. The log P values, used as an indicator of lipophilicity, were calculated using ALOGPS2.1 software. Aqueous solubility is a key physiochemical property relevant for oral absorption. We determined the solubility of each analog in 0.001 N HCl (pH=3), which represents the acidic human gastric fluid.
HUVEC Culture and Proliferation Assays. HUVEC (Lonza) were grown in EGM-2 bullet kit media (Lonza) and used at passage eight or lower. The H thymidine incorporation assays were conducted as previously described. Briefly, cells were seeded on 96-well plate at a concentration of 2000 cells/well and allowed to settle overnight. Drugs were added to each well in triplicate. After 24 hours, cells were treated with 1 μCi of [3H] thymidine for 6 h. Then cells were harvested and transferred to filtermats. The scintillation were counted and IC50 were determined using Prism software (version 6.0).

CYP3A4 = biological target: T1, CYP3A4 (Homo sapiens, UniProt P08684); assay: CYP3A4 enzyme assay (Vivid CYP3A4 Green Screening Kit); format: in vitro ADME; details: for CYP3A4 Inhibition (compared to intracozanole at 1 um): % enzyme inhibition at 1 uM drug / % enzyme inhibition at 1 uM itraconazole; for CYP3A4 inhibition, in words: dose response or compared with itraconazole; for CYP3A4 inhibition at 1 μM, in words: initial screening at 1 μM
T1 construct: purchased ThermoFisher P2857; host or cells: baculosomes (insect-cell microsomes, own knowledge)
T1 sequence (P08684 whole entry): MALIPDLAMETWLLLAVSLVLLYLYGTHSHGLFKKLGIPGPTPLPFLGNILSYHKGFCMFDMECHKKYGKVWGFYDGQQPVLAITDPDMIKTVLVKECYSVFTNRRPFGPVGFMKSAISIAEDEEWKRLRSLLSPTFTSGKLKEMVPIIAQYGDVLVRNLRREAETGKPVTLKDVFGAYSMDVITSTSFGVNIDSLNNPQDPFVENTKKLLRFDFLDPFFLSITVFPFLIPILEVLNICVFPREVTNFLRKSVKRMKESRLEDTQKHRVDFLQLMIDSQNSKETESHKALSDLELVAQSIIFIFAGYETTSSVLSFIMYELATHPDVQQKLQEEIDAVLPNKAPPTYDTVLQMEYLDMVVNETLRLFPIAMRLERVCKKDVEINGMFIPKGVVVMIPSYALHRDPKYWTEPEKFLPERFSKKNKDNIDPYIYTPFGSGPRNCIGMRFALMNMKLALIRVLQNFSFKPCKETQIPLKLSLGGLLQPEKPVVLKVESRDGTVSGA
Experimental: And CYP3A4 inhibition was initially determined using a cell-free fluorescence-based assay at a final concentration of 1 μM (Table 2).
CYP3A4 enzyme assay. CYP3A4 enzyme activity was tested using Vivid™ CYP3A4 Green Screening Kit (ThermoFisher, #P2857) using the manufacturer's protocol. Briefly, CYP3A4 baculosomes and drugs were incubated 10 min at 37° C. Then Vivid® Substrates were added and the fluorescence (ex/em:485/520) were read every 1 min for 60 minute.

SMILES	CYP3A4 Inhibition (compared to intracozanole at 1 um) (CYP3A4)	CYP3A4 inhibition, in words (CYP3A4)	CYP3A4 inhibition at 1 μM, in words (CYP3A4)	Proliferation (IC50/IC50 Itra) (HUVEC)	IC50 (HUVEC; HUVEC)	IC50 (HUVEC; Homo sapiens, HUVEC)	HUVEC proliferation / anti-angiogenic potency compared to itraconazole, in words (HUVEC; HUVEC)
CCC(C)n1ncn(-c2ccc(N3CCN(c4ccc(OC[C@@H]5CO[C@@](CN6CCOCC6)(c6ccc(Cl)cc6Cl)O5)cc4)CC3)cc2)c1=O (stereo partly drawn) [Compound 63, 1-(sec-butyl)-4-(4-(4-(4-(((2S,4R)-2-(2,4-dichlorophenyl)-2-(morpholinomethyl)-1,3-dioxolan-4-yl)methoxy)phenyl)piperazin-1-yl)phenyl)-1H-1,2,4-triazol-5(4H)-one]	0.20			7.4			
CCC(C)n1ncn(-c2ccc(N3CCN(c4ccc(OC[C@@H]5CO[C@@](Cn6ccnc6)(c6ccc(Cl)cc6Cl)O5)cc4)CC3)cc2)c1=O (stereo partly drawn) [Compound 33, 4-(4-(4-(4-(((2S,4R)-2-((1H-imidazol-1-yl)methyl)-2-(2,4-dichlorophenyl)-1,3-dioxolan-4-yl)methoxy)phenyl)piperazin-1-yl)phenyl)-1-sec-butyl-1H-1,2,4-triazol-5(4H)-one]	1.18			0.5			higher potency
CCC(C)n1ncn(-c2ccc(N3CCN(c4ccc(OC[C@@H]5CO[C@@](CC6CCCC6)(c6ccc(Cl)cc6Cl)O5)cc4)CC3)cc2)c1=O (stereo partly drawn) [Compound 61, 1-sec-butyl-4-(4-(4-(4-(((2R,4R)-2-(cyclopentylmethyl)-2-(2,4-dichlorophenyl)-1,3-dioxolan-4-yl)methoxy)phenyl)piperazin-1-yl)phenyl)-1H-1,2,4-triazol-5(4H)-one]	No inhibition			3.0			
CCC(C)n1ncn(-c2ccc(N3CCN(c4ccc(OC[C@@H]5CO[C@@](Cn6nnnc6-c6ccccc6)(c6ccc(Cl)cc6Cl)O5)cc4)CC3)cc2)c1=O (stereo partly drawn) [Compound 53, 1-sec-butyl-4-(4-(4-(4-(((2S,4R)-2-(2,4-dichlorophenyl)-2-((5-phenyl-1H-tetrazol-1-yl)methyl)-1,3-dioxolan-4-yl)methoxy)phenyl)piperazin-1-yl)phenyl)-1H-1,2,4-triazol-5(4H)-one]	0.22			0.7			

Now from value to compound, other results behind:

CYP3A4 Inhibition (compared to intracozanole at 1 um) (CYP3A4)	CYP3A4 inhibition, in words (CYP3A4)	CYP3A4 inhibition at 1 μM, in words (CYP3A4)	SMILES	Proliferation (IC50/IC50 Itra) (HUVEC)	IC50 (HUVEC; HUVEC)	IC50 (HUVEC; Homo sapiens, HUVEC)	HUVEC proliferation / anti-angiogenic potency compared to itraconazole, in words (HUVEC; HUVEC)
0.32	weak inhibition	no CYP3A4 inhibition	CCC(C)n1ncn(-c2ccc(N3CCN(c4ccc(OC[C@@H]5CO[C@@](Cn6nc(C)nc6C)(c6ccc(Cl)cc6Cl)O5)cc4)CC3)cc2)c1=O (stereo partly drawn) [Compound 47, 1-sec-butyl-4-(4-(4-(4-(((2S,4R)-2-(2,4-dichlorophenyl)-2-((3,5-dimethyl-1H-1,2,4-triazol-1-yl)methyl)-1,3-dioxolan-4-yl)methoxy)phenyl)piperazin-1-yl)phenyl)-1H-1,2,4-triazol-5(4H)-one]	1.3	0.221 µM	0.22 µM	
No inhibition	eliminated CYP3A4 inhibition	eliminated	CCC(C)n1ncn(-c2ccc(N3CCN(c4ccc(OC[C@@H]5CO[C@@](Cn6cc(C(F)(F)F)nc6C)(c6ccc(Cl)cc6Cl)O5)cc4)CC3)cc2)c1=O (stereo partly drawn) [Compound 39, 1-(sec-butyl)-4-(4-(4-(4-(((2S,4R)-2-(2,4-dichlorophenyl)-2-((2-methyl-4-(trifluoromethyl)-1H-imidazol-1-yl)methyl)-1,3-dioxolan-4-yl)methoxy)phenyl)piperazin-1-yl)phenyl)-1H-1,2,4-triazol-5(4H)-one]	2.8			
0.45			CCC(C)n1ncn(-c2ccc(N3CCN(c4ccc(OC[C@@H]5CO[C@@](Cn6cc(C)nc6C)(c6ccc(Cl)cc6Cl)O5)cc4)CC3)cc2)c1=O (stereo partly drawn) [Compound 40, 1-(sec-butyl)-4-(4-(4-(4-(((2S,4R)-2-(2,4-dichlorophenyl)-2-((2,4-dimethyl-1H-imidazol-1-yl)methyl)-1,3-dioxolan-4-yl)methoxy)phenyl)piperazin-1-yl)phenyl)-1H-1,2,4-triazol-5(4H)-one]	3.1			
